Patent US20230023559A1, “ARYLMETHYLENE HETEROCYCLIC COMPOUNDS AS KV1.3 POTASSIUM SHAKER CHANNEL BLOCKERS” (D. E. Shaw Research, LLC, priority 2019, published 2023)

How the values were obtained:
hERG channel = hERG channel (Homo sapiens, UniProt Q12809); assay: hERG electrophysiology, automated whole-cell patch clamp (Patchliner)
Kv1.3 potassium channel = molecular target: T1, Kv1.3 potassium channel (Homo sapiens, UniProt P22001); assay: Kv1.3 potassium channel blocker activity, automated whole-cell patch clamp (Patchliner); format: cell-based; conditions: CHO-K1 cells stably expressing Kv1.3; whole cell current inhibition; read-out: Kv1.3_IC50
T1 construct: expressed in transfected cells
Procedure, shortened: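 Peak-current block was recorded on stable Kv1.3 CHO-K1 cells by automated patch clamp, stepping from a −90 mV holding potential to +40 mV for 100 ms at 0.1 Hz with 10 s breaks between trains. Online P/4 leak subtraction, 10 kHz sampling; compound exposure under 10 s per train.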

T1 sequence (P22001 whole entry): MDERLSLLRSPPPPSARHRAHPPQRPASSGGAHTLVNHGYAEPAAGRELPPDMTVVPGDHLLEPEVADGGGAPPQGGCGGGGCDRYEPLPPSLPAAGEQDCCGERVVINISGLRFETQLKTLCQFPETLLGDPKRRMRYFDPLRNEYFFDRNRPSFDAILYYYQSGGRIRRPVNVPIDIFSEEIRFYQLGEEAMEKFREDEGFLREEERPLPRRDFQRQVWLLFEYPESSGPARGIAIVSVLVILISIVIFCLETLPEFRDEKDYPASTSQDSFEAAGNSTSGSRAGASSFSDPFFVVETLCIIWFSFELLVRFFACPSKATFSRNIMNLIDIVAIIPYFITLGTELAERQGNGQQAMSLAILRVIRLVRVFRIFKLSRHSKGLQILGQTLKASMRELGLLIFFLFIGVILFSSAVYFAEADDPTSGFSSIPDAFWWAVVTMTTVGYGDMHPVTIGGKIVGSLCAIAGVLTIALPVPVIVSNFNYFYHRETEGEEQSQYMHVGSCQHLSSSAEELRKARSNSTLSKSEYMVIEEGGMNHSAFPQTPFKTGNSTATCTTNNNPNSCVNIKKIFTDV
hERG channel, sequence (Q12809 whole entry): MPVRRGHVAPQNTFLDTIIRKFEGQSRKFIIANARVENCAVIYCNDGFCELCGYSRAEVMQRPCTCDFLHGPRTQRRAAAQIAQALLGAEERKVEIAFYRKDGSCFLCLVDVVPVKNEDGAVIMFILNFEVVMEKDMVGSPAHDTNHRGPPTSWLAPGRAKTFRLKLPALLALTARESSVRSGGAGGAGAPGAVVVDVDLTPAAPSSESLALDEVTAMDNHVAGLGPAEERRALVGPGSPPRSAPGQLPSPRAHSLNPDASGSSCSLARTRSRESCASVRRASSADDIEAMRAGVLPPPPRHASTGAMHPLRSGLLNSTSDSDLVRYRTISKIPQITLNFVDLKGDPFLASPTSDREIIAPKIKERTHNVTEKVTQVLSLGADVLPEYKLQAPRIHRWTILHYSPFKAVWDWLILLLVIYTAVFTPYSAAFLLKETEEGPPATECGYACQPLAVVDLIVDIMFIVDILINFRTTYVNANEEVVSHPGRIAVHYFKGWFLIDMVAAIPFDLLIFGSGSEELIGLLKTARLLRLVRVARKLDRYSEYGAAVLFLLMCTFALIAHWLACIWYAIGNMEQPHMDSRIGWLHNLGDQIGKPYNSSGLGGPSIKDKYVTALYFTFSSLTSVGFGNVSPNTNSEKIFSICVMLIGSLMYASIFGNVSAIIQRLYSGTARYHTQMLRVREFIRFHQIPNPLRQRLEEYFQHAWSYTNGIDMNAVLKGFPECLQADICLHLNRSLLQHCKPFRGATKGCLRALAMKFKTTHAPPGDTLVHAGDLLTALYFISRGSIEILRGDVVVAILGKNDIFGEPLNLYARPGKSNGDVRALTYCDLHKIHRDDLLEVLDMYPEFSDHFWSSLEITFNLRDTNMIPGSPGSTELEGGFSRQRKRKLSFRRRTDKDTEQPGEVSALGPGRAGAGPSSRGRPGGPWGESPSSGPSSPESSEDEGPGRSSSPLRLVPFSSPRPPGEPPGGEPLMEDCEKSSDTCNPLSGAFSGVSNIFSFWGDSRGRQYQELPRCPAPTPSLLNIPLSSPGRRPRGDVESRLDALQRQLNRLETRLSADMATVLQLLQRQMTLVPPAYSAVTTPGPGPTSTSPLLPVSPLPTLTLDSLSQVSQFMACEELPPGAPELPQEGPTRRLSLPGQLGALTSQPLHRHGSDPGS

| IC50 (Kv1.3 potassium channel) | Structure (SMILES) | IC50 (hERG channel) |
| --- | --- | --- |
| < 0.5 µM | N[C@@H](c1c(O)cc(Cl)c(Cl)c1F)C1CCN(C(=O)[C@H](O)CO)CC1 [Compound 291, (R)-1-(4-((R)-amino(3,4-dichloro-2-fluoro-6-hydroxyphenyl)methyl)piperidin-1-yl)-2,3-dihydroxypropan-1-one] | > 30 µM |
| < 0.5 µM | CCc1cc(O)c([C@H](N)C2CCN(C(=O)[C@H](O)CO)CC2)cc1Cl [Compound 292, (2R)-1-[4-[(R)-amino(5-chloro-4-ethyl-2-hydroxyphenyl)methyl]piperidin-1-yl]-2,3-dihydroxypropan-1-one Trifluoroacetic Acid] | > 30 µM |
| < 0.5 µM | Cc1cc(O)c([C@H](N)C2CCN(C(=O)[C@H](O)CO)CC2)cc1C [Compound 293, (2R)-1-[4-[(R)-amino(2-hydroxy-4,5-dimethylphenyl)methyl]piperidin-1-yl]-2,3-dihydroxypropan-1-one Trifluoroacetic Acid] | > 30 µM |
| < 0.5 µM | Cn1ccc(N2CCC([C@@H](N)c3cc(Cl)c(Cl)cc3O)CC2)cc1=O [Compound 297, 4-[4-[(R)-amino(4,5-dichloro-2-hydroxyphenyl)methyl]piperidin-1-yl]-1-methylpyridin-2-one] | < 30 µM |
| < 0.5 µM | Cn1cc(C(=O)N2CCC([C@@H](N)c3cc(Cl)c(Cl)cc3O)CC2)ncc1=O [Compound 298, 5-[4-[(R)-amino(4,5-dichloro-2-hydroxyphenyl)methyl]piperidine-1-carbonyl]-1-methylpyrazin-2-one Trifluoroacetic Acid] | < 30 µM |
| < 0.5 µM | N[C@@H](c1cc(Cl)c(Cl)cc1O)C1CCN(C(=O)C2CCC(=O)NC2)CC1 (stereo partly drawn) [Compound 299, 5-[4-[(R)-amino(4,5-dichloro-2-hydroxyphenyl)methyl]piperidine-1-carbonyl]piperidin-2-one Trifluoroacetic Acid] | > 30 µM |
| < 0.5 µM | CN1CC(C(=O)N2CCC([C@@H](N)c3cc(Cl)c(Cl)cc3O)CC2)NCC1=O (stereo partly drawn) [Compound 300, 5-[4-[(R)-amino(4,5-dichloro-2-hydroxyphenyl)methyl]piperidine-1-carbonyl]-1-methylpiperazin-2-one Trifluoroacetic Acid] | > 30 µM |
| < 0.5 µM | Nc1cc(C(=O)N2CCC([C@@H](N)c3cc(Cl)c(Cl)cc3O)CC2)ccn1 [Compound 301, 2-[(R)-amino[1-(2-aminopyridine-4-carbonyl)piperidin-4-yl]methyl]-4,5-dichlorophenol trifluoroacetic acid] | > 30 µM |
| < 10 µM | N[C@@H](c1cc(Cl)c(Cl)cc1O)C1CCN(c2ccc(O)nc2)CC1 [Compound 302, (R)-5-(4-(amino(4,5-dichloro-2-hydroxyphenyl)methyl)piperidin-1-yl)pyridin-2-ol] | > 30 µM |
| < 0.5 µM | N[C@@H](c1cc(Cl)c(Cl)cc1O)C1CCN(C(=O)C(CO)CO)CC1 [Compound 303, 1-[4-[(R)-amino(4,5-dichloro-2-hydroxyphenyl)methyl]piperidin-1-yl]-3-hydroxy-2-(hydroxymethyl) propan-1-one trifluoroacetic acid] | > 30 µM |
| < 0.5 µM | C[C@H](CO)C(=O)N1CCC([C@@H](N)c2cc(Cl)c(Cl)cc2O)CC1 [Compound 304, (2R)-1-[4-[(R)-amino(4,5-dichloro-2-hydroxyphenyl)methyl]piperidin-1-yl]-3-hydroxy-2-methylpropan-1-one] | > 30 µM |
| < 0.5 µM | N[C@@H](c1cc(Cl)c(Cl)cc1O)C1CCN(C(=O)c2ccc(=O)[nH]c2)CC1 [Compound 305, 5-[4-[(R)-amino(4,5-dichloro-2-hydroxyphenyl)methyl]piperidine-1-carbonyl]-1,2-dihydropyridin-2-one trifluoroacetic acid] | > 30 µM |
| < 0.5 µM | CN1C(=O)CC[C@H]1C(=O)N1CCC([C@@H](N)c2cc(Cl)c(Cl)cc2O)CC1 [Compound 306, (S)-5-(4-((R)-amino(4,5-dichloro-2-hydroxyphenyl)methyl)piperidine-1-carbonyl)-1-methylpyrrolidin-2-one trifluoroacetic acid] | > 30 µM |
| < 0.5 µM | N[C@@H](c1cc(Cl)c(Br)cc1O)C1CCN(C(=O)[C@H](O)CO)CC1 [Compound 317, (2R)-1-[4-[(R)-amino(4-bromo-5-chloro-2-hydroxyphenyl)methyl]piperidin-1-yl]-2,3-dihydroxypropan-1-one Trifluoroacetic Acid] | > 30 µM |
| < 10 µM | N[C@@H](c1cc(Cl)c(Cl)cc1O)C1CCN(C(=O)C2CC3(CC(O)C3)C2)CC1 (stereo partly drawn) [Compound 320, 6-[4-[(R)-amino(4,5-dichloro-2-hydroxyphenyl)methyl]piperidine-1-carbonyl]spiro [3.3]heptan-2-ol trifluoroacetic acid] | < 30 µM |
| < 0.5 µM | Cc1cc(O)c([C@H](N)C2CCN(C(=O)c3ccc4c(c3)CNC4=O)CC2)cc1Cl [Compound 324, 5-[4-[(R)-amino(5-chloro-2-hydroxy-4-methylphenyl)methyl]piperidine-1-carbonyl]-2,3-dihydroisoindol-1-one trifluoroacetic acid] | > 30 µM |
| < 0.5 µM | C[C@H]1C[C@H]([C@@H](N)c2cc(Cl)c(Cl)cc2O)CCN1C(=O)[C@H](O)CO [Compound 326, (2R)-1-[(2S,4R)-4-[(R)-amino(4,5-dichloro-2-hydroxyphenyl)methyl]-2-methylpiperidin-1-yl]-2,3-dihydroxypropan-1-one Trifluoroacetic Acid] | > 30 µM |
| < 10 µM | C[C@@H]1C[C@@H]([C@@H](N)c2cc(Cl)c(Cl)cc2O)CCN1C(=O)[C@H](O)CO [Compound 327, (2R)-1-[(2R,4S)-4-[(R)-amino(4,5-dichloro-2-hydroxyphenyl)methyl]-2-methylpiperidin-1-yl]-2,3-dihydroxypropan-1-one Trifluoroacetic Acid] | > 30 µM |
| < 0.5 µM | NC(c1c(O)cc(Cl)c(Cl)c1F)C1CCN(C(=O)[C@H](O)CO)CC1 (stereo partly drawn) [Compound 328, (2R)-1-[4-[amino(3,4-dichloro-2-fluoro-6-hydroxyphenyl)methyl]piperidin-1-yl]-2,3-dihydroxypropan-1-one Trifluoroacetic Acid] | > 30 µM |
| < 0.5 µM | Cc1cc(O)c([C@H](N)C2CCN(C(=O)[C@@H]3OCC[C@@H]3O)CC2)cc1Cl [Compound 335, (2R,3S)-2-[4-[(R)-amino(5-chloro-2-hydroxy-4-methylphenyl)methyl]piperidine-1-carbonyl]oxolan-3-ol trifluoroacetic acid] | > 30 µM |
